Data set [1] concerns the target T1, Acyl-CoA desaturase 1 (Rattus norvegicus) (UniProt P07308).
T1 sequence (whole entry): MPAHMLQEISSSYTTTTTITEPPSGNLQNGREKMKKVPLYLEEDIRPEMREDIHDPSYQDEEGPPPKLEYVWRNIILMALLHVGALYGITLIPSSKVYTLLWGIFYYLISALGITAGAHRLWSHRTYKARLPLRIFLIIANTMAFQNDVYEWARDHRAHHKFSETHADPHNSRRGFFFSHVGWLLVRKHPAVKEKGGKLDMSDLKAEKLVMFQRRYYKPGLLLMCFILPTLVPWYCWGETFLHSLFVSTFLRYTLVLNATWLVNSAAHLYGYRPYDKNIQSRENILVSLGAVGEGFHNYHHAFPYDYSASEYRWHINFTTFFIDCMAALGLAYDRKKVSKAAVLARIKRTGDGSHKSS
Put plainly: Inhibition of SCD1 in Sprague-Dawley rat liver microsomes using Stearoyl-[9,10-3H]-CoA as substrate assessed as [3H2O] generation at 1 uM. In general terms: Microsomes from liver hold many membrane-bound enzymes, among them those of drug oxidation.

Data set [2] addresses T2, Stearoyl-CoA desaturase (Homo sapiens) (UniProt O00767).
T2 sequence (whole entry): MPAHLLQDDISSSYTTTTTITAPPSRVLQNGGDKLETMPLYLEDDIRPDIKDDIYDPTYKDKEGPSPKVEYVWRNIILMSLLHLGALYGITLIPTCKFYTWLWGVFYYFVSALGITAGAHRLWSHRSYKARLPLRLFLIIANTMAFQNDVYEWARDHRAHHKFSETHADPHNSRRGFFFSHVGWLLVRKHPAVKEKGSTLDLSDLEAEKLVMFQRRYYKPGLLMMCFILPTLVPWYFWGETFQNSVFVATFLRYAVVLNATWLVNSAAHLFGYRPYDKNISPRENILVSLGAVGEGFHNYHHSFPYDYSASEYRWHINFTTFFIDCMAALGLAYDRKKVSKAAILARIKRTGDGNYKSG
The data set can be described thus: Inhibition of SCD1 in human A431 cells assessed as conversion of 13C-palmitic acid to 13C-palmitoleic acid after 4 hrs by LC/MS analysis. Conditions: A-431. It counts as cell-based.

The test system of data set [3] is Mus musculus. Put plainly: Antiobesity activity in DIO C57BL/6 mouse assessed as decrease in body weight gain at 10 mg/kg, po qd (reference value: 2.06 +/- 0.33 g). It counts as functional.
Data set [4] in a line: Volume of distribution at steady state in rat at 2 mg/kg, iv. It counts as ADME, organism-based. On the set-up: dose 2 mg/kg, route intravenous. The settings on record: in vivo, read-out: Vdss.
Data set [5] has as its system Mus musculus. Put plainly: Hepatotoxicity in DIO C57BL/6 mouse assessed as plasma ALT level at 10 mg/kg, po qd after 10 days (reference value: 58 +/- 5 U/L). The arrangement: dose 10 mg/kg, route oral. Conditions: in vivo, 240 h. It counts as toxicity, organism-based.
Data set [6] is described as follows: Cmax in DIO mouse at 30 mg/kg, po. The settings on record: in vivo. The arrangement: dose 30 mg/kg, route oral. The class given is ADME, organism-based.
For data set [7], the system named is Mus musculus. The data set can be described thus: Hepatotoxicity in DIO C57BL/6 mouse assessed as plasma ALT level at 30 mg/kg, po bid after 10 days (reference value: 58 +/- 5 U/L). The class given is toxicity, organism-based. On the set-up: dose 30 mg/kg, route oral. Conditions: in vivo, 240 h.
The subject of data set [8] is Mus musculus. The data set can be described thus: Hepatotoxicity in DIO C57BL/6 mouse assessed as plasma AST level at 10 mg/kg, po qd after 10 days (reference value: 99 +/- 9 U/L). It counts as toxicity, organism-based. The arrangement: dose 10 mg/kg, route oral. Conditions: in vivo, 240 h.
The nature of data set [9]: Half life in DIO mouse at 30 mg/kg, po. The class given is ADME, organism-based. On the set-up: dose 30 mg/kg, route oral. The settings on record: in vivo.
The test system of data set [10] is Mus musculus. The data set can be described thus: Antiobesity activity in DIO C57BL/6 mouse assessed as decrease in body weight gain at 30 mg/kg, po qd (reference value: 2.06 +/- 0.33 g). The class given is functional.
Data set [11] in a line: Cmax in rat at 10 mg/kg, po. The class given is ADME, organism-based. On the set-up: dose 10 mg/kg, route oral. The settings on record: in vivo.
For data set [12], the system named is Mus musculus. The data set can be described thus: Hepatotoxicity in DIO C57BL/6 mouse assessed as plasma AST level at 30 mg/kg, po qd after 10 days (reference value: 99 +/- 9 U/L). On the set-up: dose 30 mg/kg, route oral. The settings on record: in vivo, 240 h. The class given is toxicity, organism-based.
Data set [13] concerns Mus musculus. Put plainly: Antiobesity activity in DIO C57BL/6 mouse assessed as decrease in body weight gain at 30 mg/kg, po bid (reference value: 2.06 +/- 0.33 g). It counts as functional.
Data set [14] is described as follows: Cmax in rat at 2 mg/kg, iv. The class given is ADME, organism-based. On the set-up: dose 2 mg/kg, route intravenous. Conditions: in vivo.
Data set [15] is described as follows: Oral bioavailability in rat at 10 mg/kg. It counts as ADME, organism-based. Conditions: in vivo.
Data set [16] concerns Mus musculus. The data set can be described thus: Antiobesity activity in po dosed DIO C57BL/6 mouse assessed as decrease in body weight gain administered as qd/bid. The class given is functional, organism-based.
Data set [17] can be described thus: AUC (24 hrs) in rat at 2 mg/kg, iv. It counts as ADME, organism-based. On the set-up: time < 24 hr, dose 2 mg/kg, route intravenous. Conditions: plasma.
Data set [18] can be described thus: Half life in rat at 10 mg/kg, po. The arrangement: dose 10 mg/kg, route oral. The class given is ADME, organism-based. The settings on record: in vivo.
Data set [19] can be described thus: Half life in rat at 2 mg/kg, iv. It counts as ADME, organism-based. The arrangement: dose 2 mg/kg, route intravenous. Conditions: in vivo.
Data set [20] can be described thus: AUC (24 hrs) in rat at 10 mg/kg, po. The class given is ADME, organism-based. The arrangement: time < 24 hr, dose 10 mg/kg, route oral. Conditions: plasma.
Data set [21] can be described thus: AUC (24 hrs) in DIO mouse at 30 mg/kg, po. The class given is ADME, organism-based. The arrangement: time < 24 hr, dose 30 mg/kg, route oral. The settings on record: plasma.
For data set [22], the system named is Mus musculus. Put plainly: Hepatotoxicity in DIO C57BL/6 mouse assessed as plasma ALT level at 30 mg/kg, po qd after 10 days (reference value: 58 +/- 5 U/L). The class given is toxicity, organism-based. The arrangement: dose 30 mg/kg, route oral. Conditions: in vivo, 240 h.
The subject of data set [23] is Mus musculus. The data set can be described thus: Hepatotoxicity in DIO C57BL/6 mouse assessed as plasma AST level at 30 mg/kg, po bid after 10 days (reference value: 99 +/- 9 U/L). The class given is toxicity, organism-based. On the set-up: dose 30 mg/kg, route oral. The settings on record: in vivo, 240 h.
Data set [24] in a line: Clearance in rat at 10 mg/kg, po. It counts as ADME, organism-based. On the set-up: dose 10 mg/kg, route oral. Conditions: in vivo.
A further data set addresses T3, Acyl-CoA desaturase 1 (Rattus norvegicus, UniProt P07308).
T3 sequence (P07308 whole entry): T1 sequence (whole entry)
The data set can be described thus: Inhibition of SCD1 in Sprague-Dawley rat liver microsomes using Stearoyl-[9,10-3H]-CoA as substrate assessed as [3H2O] generation.

Data on 21 compounds can be found in ChEMBL document CHEMBL3091436, “4-Bicyclic heteroaryl-piperidine derivatives as potent, orally bioavailable Stearoyl-CoA desaturase-1 (SCD1) inhibitors. Part 1: urea-based analogs” (Bioorg Med Chem Lett, 2013).

One may read the inhibition as the percentage by which the read-out fell short of the control. In the case of `CNC(=O)c1cccc(NC(=O)N2CCC(N3C(=O)Cc4ccccc43)CC2)c1`, the inhibition in data set [1] amounted to 7%.

For orientation: IC50 means the point on the concentration scale where inhibition reaches its midpoint. Regarding `O=C(Nc1nc(CCO)cs1)N1CCC(N2CCc3ccc(F)cc32)CC1`, the IC50 in data set [2] was determined as 18 nM.

As a reminder, the Cmax is the peak of the concentration-time curve. By half-life is commonly meant how long it takes for the measured level to halve. Read a high half-life as slow loss. In general, bioavailability refers to the share of a dose that reaches the circulation, judged against a reference dose that is usually intravenous. Read a low bioavailability as poor availability. As a reminder, the AUC is the area under the concentration-time curve, a measure of exposure. The low end stands for less exposure, the high end for more exposure. One may read the CL/F as clearance divided by bioavailability, as obtained after extravascular dosing. Turning to `Cc1csc(NC(=O)N2CCC(c3noc4ccc(F)cc34)CC2)n1`, the Activity is 0 g in the data set with Mus musculus [3]; 57 U/L in the data set with Mus musculus [5]; 41 U/L with Mus musculus [7]; 89 U/L with Mus musculus [8]; 0.01 g with Mus musculus [10]; 93 U/L in the data set with Mus musculus [12]. The Activity in the data set on Mus musculus [13] was -0.69 g; with Mus musculus [16], “Dose-dependent effect”; in the data set on Mus musculus [22], 68 U/L; with Mus musculus [23], 102 U/L. Also, the IC50 in [2] stood at 54 nM. In addition, the Vd in data set [4] stood at 0.19 L/kg. In addition, the Cmax is 14900 ng/mL in [6], 8800 ng/mL in data set [11] and 9200 ng/mL in data set [14]. Besides, the half-life is 3.1 h in data set [9], 6.3 h in data set [18] and 3.8 h in data set [19]. For the same compound, the bioavailability in data set [15] was determined as 36.9%. Also, the values for the AUC at 24 h in data set [17], in [20] and in data set [21] were 49.8 µg·h/mL, 118 µg·h/mL and 169 µg·h/mL, respectively. For the same compound, the CL/F in [24] turned out to be 0.5 mL/min/kg.

Take `CC(=O)N1CCc2nc(NC(=O)N3CCC(N4CCc5ccc(F)cc54)CC3)sc2C1`: in [1], the inhibition came to 46%.

Turning to `CNC(=O)c1csc(NC(=O)N2CCC(N3CCc4ccc(F)cc43)CC2)n1`, in data set [1], the inhibition turned out to be 20%.

`O=C(Nc1nc2c(s1)CC(O)CC2)N1CCC(N2CCc3ccc(F)cc32)CC1` (stereo not given): the IC50 in data set [2] amounted to 1 nM; on Acyl-CoA desaturase 1 it was 14 nM.

Turning to `NC(=O)c1cnc(NC(=O)N2CCC(N3CCc4ccc(F)cc43)CC2)s1`, the IC50 in [2] stood at 49 nM.

Take `Cc1csc(NC(=O)N2CCC(N3CCc4ccc(F)cc43)CC2)n1`: the IC50 in data set [2] was found to be 21 nM.

As to `O=C(CO)N1CCc2nc(NC(=O)N3CCC(N4CCc5ccc(F)cc54)CC3)sc2C1`, in [2], the half-maximal inhibitory concentration (IC50) was determined as 113 nM.

Turning to `O=C(Nc1nc2c(s1)CCCC2)N1CCC(N2CCc3ccc(F)cc32)CC1`, the IC50 in data set [2] came out at 76 nM.

In the case of `O=C1NCCn2nc(NC(=O)N3CCC(N4CCc5ccc(F)cc54)CC3)cc21`, the IC50 was found to be 30 nM in [2] and 18 nM on Acyl-CoA desaturase 1.

As for `Cc1csc(NC(=O)N2CCC(n3ccc4ccccc43)CC2)n1`, the IC50 on Acyl-CoA desaturase 1 stood at 538 nM.

Regarding `CNC(=O)c1cccc(NC(=O)N2CCC(c3c[nH]c4ccccc34)CC2)c1`, the inhibition in data set [1] was determined as 15%.

On to `O=C(Nc1nc(CO)cs1)N1CCC(N2CCc3ccc(F)cc32)CC1`, for which the IC50 in data set [2] turned out to be 42 nM.

As for `O=C(Nc1ncc(CCO)s1)N1CCC(N2CCc3ccc(F)cc32)CC1`, the IC50 in [2] was 6 nM.

For the compound `CNC(=O)c1cnc(NC(=O)N2CCC(N3CCc4ccc(F)cc43)CC2)s1`, the IC50 in data set [2] was 206 nM.

In the case of `Cc1cnc(NC(=O)N2CCC(N3CCc4ccc(F)cc43)CC2)s1`, in data set [2], the IC50 came to 108 nM.

As for `Cc1csc(NC(=O)N2CCC(N3CCc4ccccc43)CC2)n1`, the concentration for half-maximal inhibition (IC50) at Acyl-CoA desaturase 1 was 153 nM.

As to `O=C(Nc1ncc(CO)s1)N1CCC(N2CCc3ccc(F)cc32)CC1`, the IC50 in data set [2] amounted to 154 nM.

Consider `O=C(Nc1nc2c(s1)COCC2)N1CCC(N2CCc3ccc(F)cc32)CC1`, for which the IC50 in data set [2] was found to be 17 nM.

For `O=C(Nc1nc2c(s1)CNCC2)N1CCC(N2CCc3ccc(F)cc32)CC1`, in data set [2], the half-inhibitory concentration (IC50) is 16 nM.
